The values below come from PubChem BioAssay (NCI).

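Five concentrations, 48 hours, 96-well plates. GI50 marks 50% less growth. TGI: concentration producing complete growth inhibition.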

Test systems include CCRF-CEM leukemia; MDA-MB-435; EKVX NSCLC; IGROV1 ovarian; BT-549 breast; NCI-H23 lung; SK-MEL-5 melanoma; A498 renal; SF-539 CNS; NCI/ADR-RES ovarian.
What all share (test): NCI tumour cell line growth inhibition, 48 h

`C=C1C(=O)O[C@H]2[C@H]1CC(=O)/C(C)=C\CC[C@@]1(C)O[C@@H]21`: the GI50 in the assay on CCRF-CEM leukemia was 0.443 µg/mL; in the assay on MDA-MB-435, 2.98 µg/mL; with EKVX NSCLC, 4 µg/mL; with IGROV1 ovarian, 2.17 µg/mL; in the assay with BT-549 breast it was 3.41 µg/mL; in the assay with NCI-H23 lung it was 3.94 µg/mL. In addition, the GI50 with SK-MEL-5 melanoma is 2.99 µg/mL; in the assay with A498 renal it was 5.55 µg/mL; in the assay on SF-539 CNS, 2.64 µg/mL; with NCI/ADR-RES ovarian, 1.1 µg/mL. The TGI in the assay with CCRF-CEM leukemia came out at 1.4 µg/mL; in the assay on MDA-MB-435, 7.14 µg/mL; with EKVX NSCLC, 8.03 µg/mL; in the assay on IGROV1 ovarian, 5.8 µg/mL; with BT-549 breast, 7 µg/mL; in the assay on NCI-H23 lung, 8.18 µg/mL. Besides, the TGI in the assay with SK-MEL-5 melanoma amounted to 8.73 µg/mL; in the assay on A498 renal, 11.3 µg/mL; with SF-539 CNS, 7.16 µg/mL; with NCI/ADR-RES ovarian it was 4.45 µg/mL.

With `COC(=O)[C@H](Cc1ccccc1)NC(=O)[C@@H](OC)[C@@H]1Cc2cc3cc(OC4CC(OC5CC(O)C(O)C(C)O5)C(O)C(C)O4)c(C)c(O)c3c(O)c2C(=O)[C@H]1OC1CC(OC2CC(OC3CC(C)(O)C(O)C(C)O3)C(O)C(C)O2)C(O)C(C)O1` (stereo not given in full), the GI50 with CCRF-CEM leukemia was 0.0137 µM; with MDA-MB-435, 0.0182 µM; in the assay with EKVX NSCLC it was 0.0393 µM; in the assay with IGROV1 ovarian, 0.00902 µM; with BT-549 breast, 0.00713 µM; in the assay with NCI-H23 lung, 0.0106 µM. For the same compound, the GI50 in the assay on SK-MEL-5 melanoma is 0.00691 µM; in the assay on A498 renal, 0.024 µM; with SF-539 CNS it was 0.0088 µM; in the assay on NCI/ADR-RES ovarian, 4.22 µM. The TGI was greater than 14.3 µM in the assay on CCRF-CEM leukemia; 0.0642 µM in the assay on MDA-MB-435; greater than 14.3 µM with EKVX NSCLC; greater than 14.3 µM in the assay on IGROV1 ovarian; 0.0574 µM in the assay with BT-549 breast; 0.0821 µM in the assay with NCI-H23 lung. Further, the TGI was 0.0357 µM in the assay on SK-MEL-5 melanoma, 0.0626 µM with A498 renal, 0.065 µM with SF-539 CNS and greater than 14.3 µM in the assay on NCI/ADR-RES ovarian.

As to `CCCCc1nc2cc(/C=C/C(=O)NO)ccc2n1CCN(CC)CC`, the GI50 in the assay on CCRF-CEM leukemia was 0.317 µM; with MDA-MB-435, 0.24 µM; in the assay on EKVX NSCLC, 0.387 µM; in the assay on IGROV1 ovarian, 0.733 µM; in the assay on BT-549 breast, 1.98 µM; in the assay on NCI-H23 lung, 0.452 µM. Further, the GI50 with SK-MEL-5 melanoma is 0.146 µM; in the assay on A498 renal, 0.194 µM; in the assay with SF-539 CNS, 0.335 µM; in the assay with NCI/ADR-RES ovarian it was 0.239 µM. Also, the TGI in the assay with CCRF-CEM leukemia was greater than 100 µM; in the assay with MDA-MB-435, 0.855 µM; in the assay on EKVX NSCLC, greater than 100 µM; with IGROV1 ovarian it was 5.67 µM; in the assay with BT-549 breast it was 38.2 µM; in the assay on NCI-H23 lung it was 7.72 µM. Moreover, the TGI with SK-MEL-5 melanoma came to 0.339 µM; in the assay with A498 renal, 0.658 µM; in the assay on SF-539 CNS it was 18.5 µM; in the assay on NCI/ADR-RES ovarian, 4.03 µM.

For the compound `COc1ccc2sc3c(NCCCNCCO)nc4ccccc4c3c(=O)c2c1`, the GI50 in the assay with CCRF-CEM leukemia is 1.74 µM; with MDA-MB-435 it was 1.61 µM; with EKVX NSCLC, 1.45 µM; with IGROV1 ovarian, 1.33 µM; in the assay with BT-549 breast, 10.2 µM; in the assay with NCI-H23 lung it was 1.73 µM. Moreover, the GI50 is 1.76 µM in the assay with SK-MEL-5 melanoma, 1.49 µM in the assay on A498 renal, 1.65 µM in the assay with SF-539 CNS and 1.76 µM with NCI/ADR-RES ovarian. Also, the TGI is 4.06 µM in the assay with CCRF-CEM leukemia; 3.01 µM in the assay on MDA-MB-435; 2.94 µM with EKVX NSCLC; 2.85 µM in the assay on IGROV1 ovarian; 22.7 µM in the assay on BT-549 breast; 3.27 µM in the assay on NCI-H23 lung. Further, the TGI with SK-MEL-5 melanoma came out at 3.18 µM; with A498 renal, 2.97 µM; with SF-539 CNS, 3.1 µM; with NCI/ADR-RES ovarian it was 3.53 µM.

For `COC(=O)[C@]12CC[C@@H](C)[C@H](C)[C@@H]1C1=CC[C@@H]3[C@@]4(C)C=C(O)C(=O)C(C)=C4CC[C@@]3(C)[C@]1(C)CC2`, the GI50 is 5.26 µM in the assay on CCRF-CEM leukemia; 13.8 µM with MDA-MB-435; 4.96 µM in the assay with EKVX NSCLC; 13.4 µM in the assay with IGROV1 ovarian; 15.5 µM in the assay with BT-549 breast; 11 µM with NCI-H23 lung. Moreover, the GI50 in the assay on SK-MEL-5 melanoma was 15.4 µM; in the assay with A498 renal, 19.5 µM; in the assay with SF-539 CNS it was 12.2 µM; in the assay with NCI/ADR-RES ovarian it was 12.7 µM. Also, the TGI in the assay with CCRF-CEM leukemia is 23.4 µM; in the assay on MDA-MB-435, 28.2 µM; in the assay on EKVX NSCLC, 19.5 µM; with IGROV1 ovarian, 36.5 µM; in the assay with BT-549 breast, 37.4 µM; in the assay with NCI-H23 lung, 27.8 µM. In addition, the TGI turned out to be 28.8 µM with SK-MEL-5 melanoma, 34.1 µM with A498 renal, 27.2 µM with SF-539 CNS and 31.7 µM in the assay with NCI/ADR-RES ovarian.

Regarding `CN1CCN(c2cc(Nc3cc(C4CC4)[nH]n3)nc(Nc3ccc(CC(=O)NCc4cccc(F)c4)cc3)n2)CC1`, the GI50 with CCRF-CEM leukemia is 0.0495 µM; with MDA-MB-435, 0.44 µM; in the assay with EKVX NSCLC, 3.41 µM; with IGROV1 ovarian, 0.237 µM; with BT-549 breast, 2.96 µM; in the assay on NCI-H23 lung, 1.05 µM. Further, the GI50 with SK-MEL-5 melanoma is 1.42 µM; in the assay with A498 renal it was 0.143 µM; in the assay with SF-539 CNS, 0.858 µM; in the assay with NCI/ADR-RES ovarian, 18.8 µM. The TGI stood at 7.49 µM with CCRF-CEM leukemia; 2.63 µM in the assay with MDA-MB-435; 32.4 µM with EKVX NSCLC; 2.97 µM with IGROV1 ovarian; 19.9 µM in the assay with BT-549 breast; 9.74 µM in the assay with NCI-H23 lung. The TGI in the assay on SK-MEL-5 melanoma was 3.08 µM; in the assay on A498 renal, 0.967 µM; with SF-539 CNS it was 2.28 µM; in the assay with NCI/ADR-RES ovarian, greater than 100 µM.

For the compound `O=C(CC(=O)c1ccccc1NC1=Cc2ccccc2C(=O)C1=O)C(=O)NC1=C(Cl)C(=O)c2ccccc2C1=O`, the TGI came to 33.6 µM in the assay on CCRF-CEM leukemia; 3.36 µM in the assay with MDA-MB-435; 22.4 µM in the assay with EKVX NSCLC; 17.6 µM in the assay with IGROV1 ovarian; 9.14 µM in the assay with BT-549 breast; 6.25 µM in the assay on NCI-H23 lung. For the same compound, the TGI in the assay on SK-MEL-5 melanoma worked out at 2.05 µM; in the assay with A498 renal it was 30.3 µM; with SF-539 CNS, 9.11 µM; with NCI/ADR-RES ovarian, 7 µM.
